Here are results for 2 compounds from article PMC12111648, “New Dimethoxyaryl-Sesquiterpene Derivatives with Cytotoxic Activity Against MCF-7 Breast Cancer Cells: From Synthesis to Topoisomerase I/II Inhibition and Cell Death Mechanism Studies” (International Journal of Molecular Sciences, 2025).

Entries after “also recorded” stand apart in the source; their conditions may differ.

Series [1] deals with caspases-3/7 in MCF-7 cells. Nature of the series: Caspase-Glo 3/7 assay. The class given is cell-based, human. The settings on record: MCF-7, 50 μM, 24 h, versus control. The method, then: Since ROS levels were increased in the MCF-7 cancer cell line in response to the compounds, it is important to determine whether this effect is associated with the onset of apoptotic cell death. […] Cells were treated with the selected compounds at 50 μM for 24 h, incubated in situ with the Caspase-Glo 3/7 marker assay, and then analyzed in a luminometer.
The activity of caspase 3/7 in MCF-7 cells treated with the compounds was determined using a Caspase-Glo-3/7 Assay kit from Promega (UK). This assay is a homogenous and luminescent method that measures the activity of caspase-3 and -7, which are essential for apoptosis. MCF-7 cells (1 × 10^4 cells per well) were seeded in a 96-well plate and incubated overnight. The cells were then treated for 24 h with the compounds (50 µM) and a blank as a control. After treatment, the Caspase-Glo® 3/7 reagent was prepared according to the manufacturer’s instructions. Specifically, 100 μL of the reagent was added to 100 μL of culture medium containing the treated cells in each well, and the mixture was incubated for 1 h at room temperature in the dark. Luminescence was then measured using a luminometer (Berthold Sirius Single Tube Luminometer). The fold change in caspase activity was calculated by expressing the average luminescence of each treatment as a fold change with respect to the average luminescence of the negative control.
Figure 6 The effect of the compounds on caspases-3/7 activity in cells from the human breast cancer cell line MCF-7. Caspases-3/7 activity was determined in MCF-7 cells following treatment with the compounds (50 μM) for 24 h. The data are reported as the ratio of activity in treated cells vs. the control (1% ethanol), which were arbitrarily assigned a unitary value. * p < 0.05 versus control cells (Ctrl). The data are reported as the mean values ± S.D. of three different experiments with samples in triplicate.

In a further series the test system is MCF-7 cells. Put plainly: Mitochondrial membrane potential (rhodamine 123, flow cytometry). Conditions: MCF-7, compounds at respective IC50, 24 h. The series is classed as cell-based, human. Here is the method:
To determine whether the toxic effects of selected sesquiterpenes (10c, 11c, 12c, 13c, and 14c) are due to the production of ROS and subsequent apoptosis, the mitochondrial membrane potential was measured. With this aim, a protocol using rhodamine 123 staining and flow cytometry was established to study the effect of the selected compounds [40]. The accumulation of rhodamine 123 in mitochondria is associated with the maintenance of the electrochemical gradient in mitochondria. Daunorubicin was used as a positive control (C+). The results are presented as the percentage of cells with increased mitochondrial membrane permeability.
Rhodamine 123 (Rho123), a positively charged dye that reacts to voltage changes and enters the mitochondria, was utilized to detect modifications in the mitochondrial membrane potential. The cells were exposed to specific compounds (IC50 values for each compound) for 24 h. Control cells that had not been treated were used as negative control, while cells treated with daunorubicin at a concentration of 1 µM served as the positive control. Following this, the cells were incubated with Rho123 (at a concentration of 1 µM) in darkness for an hour at 37 °C. Afterward, the medium was taken out, and the cells were washed with PBS. The cells were then dissociated using trypsin and collected through centrifugation for 10 min at 1500×g. The supernatant was thrown away, and the cell pellets were resuspended in PBS and analyzed using flow cytometry with the FL1 filter. The results are shown as the percentage of Rho123-stained cells.
Figure 5 The effect of the compound’s treatment on mitochondrial membrane potential. […] The data represent the means ± S.D. of at least three experiments with triplicate samples.
Background: A flow cytometer gives signals particle by particle.

The test system of another series is human topoisomerase II. Nature of the series: TOP2 DNA relaxation / plasmid linearization assay. The series is classed as biochemical. Conditions: 20 μM. Here is the method:
The ability to relax DNA conformations is a central function of topoisomerase enzymes. Several studies have associated some proapoptotic compounds with the ability to inhibit topoisomerase enzymes. The ability of the selected compounds to inhibit TOP1 or TOP2 activity was determined. In this experiment, daunorubicin was used as a positive control for TOP1/2 inhibition, as previously reported. […] It is important to note the potential for cardiotoxicity associated with some TOP2 inhibitors, which highlights the relevance of assessing compound 14c’s interaction with TOP2B. […] Future studies should include assays to evaluate the specific activity of 14c against both TOP2A and TOP2B to provide a more comprehensive safety profile, as isoform-selective TOP2 inhibitors may offer a therapeutic advantage by reducing adverse effects.
Topoisomerase II-mediated DNA cleavage was assessed using a plasmid linearization assay adapted from previously described methods. Supercoiled plasmid DNA (200 ng final concentration) was incubated with purified human topoisomerase II (10 U) in the presence or absence of test agents or a positive control. Reactions were carried out in a total volume of 20 μL, composed of 2 μL of 10× topoisomerase II reaction buffer, an appropriate volume of compound or control, and nuclease-free water. ATP (final concentration adjusted from a 20 mM stock) was freshly added to the reaction buffer immediately prior to use. Reactions were initiated by the addition of topoisomerase II and incubated at 37 °C for 30 min. To terminate the reactions, 2 μL of 10% SDS was added directly to the tubes while still in the 37 °C water bath, followed by the addition of 1.5 μL of 250 mM tetrasodium EDTA (pH 8.0) and 2 μL of proteinase K solution (0.8 mg/mL). […]
Figure 7 The effect of sesquiterpene aryl esters on TOP1- and TOP2-induced DNA relaxation was assessed. (A) The TOP1 inhibition assay evaluated the compounds (10c, 11c, 12c, 13c, and 14c) at a concentration of 20 μM in a DNA relaxation assay. […]

Take `COc1ccc(/C=C2\C(C)=CCC3C(C)(C)CCC[C@]23C)cc1OC` (stereo partly drawn) [Compound 13c, (4aS)-5-((E)-3,4-Dimethoxybenzylidene)-1,1,4a,6-tetramethyl-1,2,3,4,4a,5,8,8a-octahydronaphthalene]: in series [1], the caspases-3/7 activity entry is listed as “considerably enhanced”. In the series on MCF-7 cells, the mitochondrial membrane permeability entry is reported as “did not increase”. Further, the “inhibition of TOP2-induced DNA relaxation” value in the series with human topoisomerase II is given as “no inhibition”.

Take `COc1cc2c(cc1OC)[C@]1(C)CCC3C(C)(C)CCC[C@]3(C)C1=C2` (stereo partly drawn) [Compound 14c, (6aR,11bS)-8,9-Dimethoxy-4,4,6a,11b-tetramethyl-2,3,4,4a,5,6,6a,11b-octahydro-1H-benzo[a]fluorene]: the caspases-3/7 activity result in series [1] is reported as “activated caspases-3/7; also recorded: considerably enhanced”. Besides, the mitochondrial membrane permeability result with MCF-7 cells was “did not increase”. For the same compound, in the series with human topoisomerase II, the “inhibition of TOP2-induced DNA relaxation” value was “selectively inhibited topoisomerase II; also recorded: modified the TOP2-induced DNA relaxation pattern”.
